Reference: PMC7070694, “Identification of New Peptides from Fermented Milk Showing Antioxidant Properties: Mechanism of Action” (Antioxidants, 2020)
Peptide text beside a SMILES is read from it.

Key:
[1] = MTT cell viability (cytotoxicity); format: cell-based; conditions: human, Caco-2 cells (1 × 10^4), synthetic peptides 0.05 mg/mL, no TbOOH, mean ± SD of at least three experiments, read-out: Percentage of Cell Viability, None (c)
[2] = tested on: Caco-2 cell monolayer; experiment: Transepithelial transport through Caco-2 cell monolayers (Transwell); format: in vitro ADME; conditions: Caco-2 monolayer on Transwell, 21 days, TEER > 1100 Ω × cm^2, 75 µg peptide in 0.75 mL HBSS apical, 37 °C, RP-HPLC UV 220 nm, mean ± SD, n. d. = not detected with RP-HPLC; for RP-HPLC Estimation AP (%): 120 min after 30 min equilibration, apical compartment, % of total peptide added; for RP-HPLC Estimation BL (%): A-B, 120 min, basolateral compartment, % of initial peptide added apically
Procedure: Caco-2 cells were obtained from DISCOG (University of Padova, Padova, Italy). The cells cultured in DMEM (high glucose) supplemented with 10% FBS, were used between 35 and 60 passages. In order to perform transepithelial transport, 8 × 10^4 cells were seeded on Transwell^© cell culture inserts (0.4 µm pore sizes, 12 mm diameter, 1.12 cm^2 grown surface; Corning Life Sciences, Tewksbury, MA, USA). Cells were grown, differentiated for 21 days and the monolayer integrity was estimated by transepithelial electrical resistance (TEER) (Millicell® ERS-2 volt-ohmmeter, EDM Millipore, Darmstadt, Germany) showing values higher than 1100 Ω × cm^2.
The intestinal barrier crossing capacity of the fractions or synthetic peptides through Caco-2 cells monolayer was evaluated using Transwell® insert model according to Tonolo et al.. Briefly, after 21 days of culturing, Caco-2 cells differentiated forming a monolayer that delimited an upper part (apical compartment) and lower part (basolateral compartment). The monolayer was rinsed three times with Hank’s balanced salt solution (HBSS) and 10 mM D-glucose and equilibrated for 30 min at 37 °C. After, cells were incubated in the presence of 0.75 mL HBSS containing 150 µg fraction or 75 µg peptide in the apical chamber at 37 °C for 120 min. Samples collected from both compartments (apical and basolateral) at different times were centrifuged at 11,600× g, filtered with 0.45 µm filter, frozen and lyophilized. Subsequently, the obtained samples were dissolved in 100 µL of 0.1% TFA aqueous solution and evaluated by RP-HPLC and Matrix assisted laser desorption/ionization- time of flight/time of flight mass spectrometry (MALDI-TOF/TOF MS).
The apical and basolateral compartments were evaluated in RP-HPLC using a column Onyx Monolithic C18 100 mm × 4.6 mm, LC column (Phenomenex, Torrance, CA, USA) with a Waters 2695 Separation Module (Milfold, MA, USA) with a Waters 996 Photodiode Array Detector. Separations were performed with a linear gradient from 0–60% ACN in the presence of 0.1% TFA over 20 min at a constant flow rate of 2 mL/min monitoring the peaks by UV detection (λ = 220 nm).
Subsequently, the obtained fractions were analysed with a MALDI-TOF/TOF 4800 mass spectrometer (AB Sciex, Framingham, MA, USA). After an initial full MS scan, enlargements on the MS signals of interest were acquired. For the basolateral fractions, the samples, after lyophilisation, were dissolved in 50 µL of 25% ACN and 0.1% TFA. The analysis was then performed on 2 µL of these solutions mixed with 2 µL of peptide MALDI matrix α-cyano-4-hydroxycynnamic acid (10 mg/mL aqueous 70% acetonitrile/0.1% TFA). The following analytical conditions were set for MALDI-TOF spectra acquisition: positive ion reflector mode, initial mass range 500–3500 Da (the mass range was then adapted for each enlargement), variable laser intensity (3000–3800), shots/sub-spectrum 50, total shots/spectrum 1500 and accelerating voltage of 20 kV. Final data analysis and fragments identification were done on Data Explorer software (AB Sciex, Framingham, MA, USA), utilizing external mass calibration performed with mass peptide standards (Sigma-Aldrich, St Louis, MO, USA).
In order to evaluate the intestinal crossing capacity of the four peptides, Transwell® insert model peptide absorption, was performed. […] After 10 min and 120 min, apical and basolateral compartments were collected and analyzed by RP-HPLC and mass spectrometry.

In the case of CC[C@H](C)[C@H](NC(=O)[C@@H]1CCCN1C(=O)CNC(=O)[C@@H](N)CCC(N)=O)C(=O)N[C@H](C(=O)N[C@@H](CC(C)C)C(=O)N[C@@H](CC(N)=O)C(=O)N1CCC[C@H]1C(=O)N[C@@H](Cc1c[nH]c2ccccc12)C(=O)N[C@@H](CC(=O)O)C(=O)N[C@@H](CCC(N)=O)C(=O)N[C@H](C(=O)N[C@@H](CCCCN)C(=O)N[C@@H](CCCNC(=N)N)C(=O)O)C(C)C)C(C)C [Q-14-R] (H-QGPIVLNPWDQVKR-OH), the viability at 24 h, 50 µg/mL [1] is reported as 115 ± 15.6%, the “RP-HPLC Estimation AP (%)” value [2] is reported as 87.59 ± 12.18% and the “RP-HPLC Estimation BL (%)” value [2] is reported as 0.02 ± 0.01%.

In the case of CC[C@H](C)[C@H](NC(=O)[C@@H]1CCCN1C(=O)[C@H](CC(N)=O)NC(=O)[C@@H]1CCCN1C(=O)[C@@H](NC(=O)[C@H](CC(=O)O)NC(=O)[C@H](CO)NC(=O)[C@H](Cc1ccccc1)NC(=O)[C@H](CO)NC(=O)[C@@H]1CCCN1C(=O)[C@H](C)N)[C@@H](C)CC)C(=O)NCC(=O)N[C@@H](CO)C(=O)N[C@@H](CCC(=O)O)C(=O)N[C@@H](CC(N)=O)C(=O)N[C@@H](CO)C(=O)O [A-16-S] (H-APSFSDIPNPIGSENS-OH), the “RP-HPLC Estimation AP (%)” value [2] is reported as 3.22 ± 0.00%.

With CC[C@H](C)[C@H](NC(=O)[C@@H]1CCCN1C(=O)CN)C(=O)N[C@H](C(=O)N[C@@H](CC(C)C)C(=O)N[C@@H](CC(N)=O)C(=O)N1CCC[C@H]1C(=O)N[C@@H](Cc1c[nH]c2ccccc12)C(=O)N[C@@H](CC(=O)O)C(=O)N[C@@H](CCC(N)=O)C(=O)N[C@H](C(=O)N[C@@H](CCCCN)C(=O)N[C@@H](CCCNC(=N)N)C(=O)O)C(C)C)C(C)C [G-13-R] (H-GPIVLNPWDQVKR-OH) the “RP-HPLC Estimation AP (%)” value [2] was 3.19 ± 0.27%.

With CC[C@H](C)[C@H](NC(=O)[C@@H]1CCCN1C(=O)CNC(=O)[C@@H](N)CCC(N)=O)C(=O)N[C@H](C(=O)N[C@@H](CC(C)C)C(=O)N[C@@H](CC(N)=O)C(=O)N1CCC[C@H]1C(=O)N[C@@H](Cc1c[nH]c2ccccc12)C(=O)N[C@@H](CC(=O)O)C(=O)N[C@@H](CCC(N)=O)C(=O)N[C@H](C(=O)N[C@@H](CCCCN)C(=O)O)C(C)C)C(C)C [Q-13-K] (H-QGPIVLNPWDQVK-OH) the “RP-HPLC Estimation BL (%)” value [2] was 0.07 ± 0.05%.

In the case of CC[C@H](C)[C@H](NC(=O)[C@@H]1CCCN1C(=O)[C@H](CC(N)=O)NC(=O)[C@@H]1CCCN1C(=O)[C@@H](NC(=O)[C@H](CC(=O)O)NC(=O)[C@H](CO)NC(=O)[C@H](Cc1ccccc1)NC(=O)[C@@H](N)CO)[C@@H](C)CC)C(=O)NCC(=O)N[C@@H](CO)C(=O)N[C@@H](CCC(=O)O)C(=O)N[C@@H](CC(N)=O)C(=O)N[C@@H](CO)C(=O)N[C@@H](CCC(=O)O)C(=O)O [S-15-E] (H-SFSDIPNPIGSENSE-OH), the “RP-HPLC Estimation AP (%)” value [2] is reported as 8.97 ± 0.53% and the “RP-HPLC Estimation BL (%)” value [2] is reported as 0.30 ± 0.07%.

With CC(C)[C@H](NC(=O)[C@H](CCC(N)=O)NC(=O)[C@H](CC(=O)O)NC(=O)[C@H](Cc1c[nH]c2ccccc12)NC(=O)[C@@H]1CCCN1C(=O)[C@@H](N)CC(N)=O)C(=O)N[C@@H](CCCCN)C(=O)N[C@@H](CCCNC(=N)N)C(=O)O [N-8-R] (H-NPWDQVKR-OH) the “RP-HPLC Estimation AP (%)” value [2] was 0.55 ± 0.15%.

For CC[C@H](C)[C@H](NC(=O)[C@H](CCCCN)NC(=O)[C@H](CC(=O)O)NC(=O)[C@H](CCC(N)=O)NC(=O)[C@H](CC(C)C)NC(=O)[C@H](CCC(=O)O)NC(=O)[C@H](CC(=O)O)NC(=O)[C@@H](N)CCC(=O)O)C(=O)N[C@@H](Cc1c[nH]cn1)C(=O)N1CCC[C@H]1C(=O)N[C@@H](Cc1ccccc1)C(=O)O [E-11-F] (H-EDELQDKIHPF-OH), the viability at 24 h, 50 µg/mL [1] was 112 ± 13.5%, the “RP-HPLC Estimation AP (%)” value [2] was 88.28 ± 5.89% and the “RP-HPLC Estimation BL (%)” value [2] was 0.21 ± 0.01%.

For CSCC[C@H](NC(=O)[C@@H](NC(=O)[C@@H](NC(=O)[C@@H]1CCCN1C(=O)[C@H](CCC(N)=O)NC(=O)[C@H](C)NC(=O)[C@H](CCC(N)=O)NC(=O)[C@H](CS)NC(=O)[C@H](CO)NC(=O)[C@H](CCCCN)NC(=O)[C@H](C)N)[C@@H](C)O)[C@@H](C)O)C(=O)O [A-11-M] (H-AKSCQAQPTTM-OH), the “RP-HPLC Estimation AP (%)” value [2] was 44.96 ± 9.09% and the “RP-HPLC Estimation BL (%)” value [2] was 0.16 ± 0.02%.

With CSCC[C@H](NC(=O)[C@@H](NC(=O)[C@@H](NC(=O)[C@@H]1CCCN1C(=O)[C@H](CCC(N)=O)NC(=O)[C@H](C)NC(=O)[C@H](CCC(N)=O)NC(=O)[C@H](CS)NC(=O)[C@H](CO)NC(=O)[C@H](CCCCN)NC(=O)[C@H](C)NC(=O)[C@@H]1CCCN1C(=O)[C@@H](N)C(C)C)[C@@H](C)O)[C@@H](C)O)C(=O)O [V-13-M] (H-VPAKSCQAQPTTM-OH) the “RP-HPLC Estimation AP (%)” value [2] was 2.21 ± 0.53%.

With CC[C@H](C)[C@H](NC(=O)[C@H](CCCCN)NC(=O)[C@H](CC(=O)O)NC(=O)[C@H](CCC(N)=O)NC(=O)[C@H](CC(C)C)NC(=O)[C@H](CCC(=O)O)NC(=O)[C@@H](N)CC(=O)O)C(=O)N[C@@H](Cc1c[nH]cn1)C(=O)N1CCC[C@H]1C(=O)N[C@@H](Cc1ccccc1)C(=O)O [D-10-F] (H-DELQDKIHPF-OH) the “RP-HPLC Estimation AP (%)” value [2] was 4.17 ± 0.27%.

With CSCC[C@H](NC(=O)[C@@H](NC(=O)[C@@H](NC(=O)[C@@H]1CCCN1C(=O)[C@H](CCC(N)=O)NC(=O)[C@H](C)NC(=O)[C@H](CCC(N)=O)NC(=O)[C@H](CS)NC(=O)[C@H](CO)NC(=O)[C@H](CCCCN)NC(=O)[C@H](C)NC(=O)[C@@H]1CCCN1C(=O)[C@@H](NC(=O)[C@@H](NC(=O)[C@@H](N)CC(N)=O)[C@@H](C)O)C(C)C)[C@@H](C)O)[C@@H](C)O)C(=O)O [N-15-M] (H-NTVPAKSCQAQPTTM-OH) the viability at 24 h, 50 µg/mL [1] was 108 ± 5.96%, the “RP-HPLC Estimation AP (%)” value [2] was 60.76 ± 8.83% and the “RP-HPLC Estimation BL (%)” value [2] was 0.13 ± 0.04%.

In the case of CSCC[C@H](NC(=O)[C@@H](NC(=O)[C@@H](NC(=O)[C@@H]1CCCN1C(=O)[C@H](CCC(N)=O)NC(=O)[C@H](C)NC(=O)[C@H](CCC(N)=O)NC(=O)[C@H](CS)NC(=O)[C@@H](N)CO)[C@@H](C)O)[C@@H](C)O)C(=O)O [S-9-M] (H-SCQAQPTTM-OH), the “RP-HPLC Estimation BL (%)” value [2] is reported as 0.12 ± 0.03%.

For CC[C@H](C)[C@H](N)C(=O)N[C@H](C(=O)N[C@@H](CC(C)C)C(=O)N[C@@H](CC(N)=O)C(=O)N1CCC[C@H]1C(=O)N[C@@H](Cc1c[nH]c2ccccc12)C(=O)N[C@@H](CC(=O)O)C(=O)N[C@@H](CCC(N)=O)C(=O)N[C@H](C(=O)N[C@@H](CCCCN)C(=O)N[C@@H](CCCNC(=N)N)C(=O)O)C(C)C)C(C)C [I-11-R] (H-IVLNPWDQVKR-OH), the “RP-HPLC Estimation AP (%)” value [2] was 1.47 ± 0.19%.

With CC[C@H](C)[C@H](NC(=O)[C@@H]1CCCN1C(=O)[C@H](CC(N)=O)NC(=O)[C@@H]1CCCN1C(=O)[C@@H](NC(=O)[C@H](CC(=O)O)NC(=O)[C@H](CO)NC(=O)[C@@H](N)Cc1ccccc1)[C@@H](C)CC)C(=O)NCC(=O)N[C@@H](CO)C(=O)N[C@@H](CCC(=O)O)C(=O)N[C@@H](CC(N)=O)C(=O)N[C@@H](CO)C(=O)N[C@@H](CCC(=O)O)C(=O)O [F-14-E] (H-FSDIPNPIGSENSE-OH) the “RP-HPLC Estimation AP (%)” value [2] was 3.07 ± 0.60%.

In the case of CC[C@H](C)[C@H](NC(=O)[C@@H]1CCCN1C(=O)CNC(=O)[C@@H](N)CCC(N)=O)C(=O)N[C@H](C(=O)N[C@@H](CC(C)C)C(=O)N[C@@H](CC(N)=O)C(=O)N1CCC[C@H]1C(=O)N[C@@H](Cc1c[nH]c2ccccc12)C(=O)N[C@@H](CC(=O)O)C(=O)N[C@@H](CCC(N)=O)C(=O)O)C(C)C [Q-11-Q] (H-QGPIVLNPWDQ-OH), the “RP-HPLC Estimation BL (%)” value [2] is reported as 0.11 ± 0.01%.
